Results on four compounds are retold here after US20060251705A1 (Wyeth, priority 2005, published 2006).

Holding throughout (assay type): physicochemical
Data set [1] in a line: Simulated Y-site compatibility: subvisible particulates by light obscuration (HIAC, USP 788). Particulars: for Subvisible Particulates (HIAC) ≧10 μm / Subvisible Particulates (HIAC) ≧25 μm: each before mixing, 0 hours; for HIAC ≧10 μm / HIAC ≧25 μm: each solution before mixing, 0 Hours. From the text: Sub-visible particulate formation may be measured by light obscuration (HIAC) as per United States Pharmacopeia USP Chapter 788 Particulate Matter in Injections.
This time period has become standard when performing these “simulated Y-site” studies, although the actual residence time for the two solutions in the administration set may not exceed eight minutes prior to entering the venous system.
The acceptance criteria of “no incompatibility indicating change” over the four hour evaluation period is being applied to the Appearance and Description assay as well as the HIAC subvisible particulate assay. Thus, for instance, formation of visible particulates or increase of subvisible particulates would indicate an incompatibility and would result in a “Y-site incompatible” classification for that diluent or drug. In addition to the Appearance and Description and HIAC testing, the pH of the solutions are monitored “for information only.” Before mixing of the two test solutions together; Appearance and Description, HIAC subvisible particulate testing, and pH are determined on each as controls.
(§1) Testing of Controls • 1. […] The remaining volumes of the two test articles are used immediately.
(§2) Preparation and Testing of Combined Solutions • 1. […] Approximately 30 ml of the combined solution is immediately removed for 0 hour Appearance and Description, subvisible particulates by HIAC and pH testing. The beaker with the remaining solution is then recovered with Parafilm and the headspace flushed with nitrogen. • 2. The sampling and testing of 30 ml aliquots is repeated after one and four hours.
The following tests are performed immediately after sampling: • 1. Appearance and Description for color, visible particulates, and turbidity measured using a Black and White background light box with a fluorescent lamp capable of producing intensity of illumination between 2000 and 3750 lux. • 2. Sub visible particulates are measured by light obscuration (HIAC) as per United States Pharmacopeia USP Chapter 788 Particulate Matter in Injections.
(§3) All drug products are prepared per package insert directions; some drugs having wide therapeutic ranges are tested at multiple concentrations, and some drugs with different formulations are tested. A simulation of the mixing which would occur at an intravenous administration set Y-site is used, and the period for evaluation of compatibility exaggerated the generally short time that the two agents would be together prior to venous circulation. Test solutions before and after mixing are measured by visual observation, by light obscuration for subvisible particulates (HIAC), and by potentiometry over a four hour period.

Data set [2] is described as follows: Simulated Y-site compatibility: pH by potentiometric meter. As for the experimental part:
(§4) The acceptance criteria of “no incompatibility indicating change” over the four hour evaluation period is being applied to the Appearance and Description assay as well as the HIAC subvisible particulate assay. […] In addition to the Appearance and Description and HIAC testing, the pH of the solutions are monitored “for information only.” Before mixing of the two test solutions together; Appearance and Description, HIAC subvisible particulate testing, and pH are determined on each as controls.
as §1, §2
pH is measured using a potentiometric meter capable of measuring pH values reproducibly within 0.02 pH units and having electrodes suitable for pH meter use.
as §3

Data set [3] in a line: Compatibility of tigecycline with heparin (simulated Y-site study, overall finding). Particulars: common point of administration, e.g. Y-site, without saline flush. As to the method: A study is performed to determine the compatibility of tigecycline solutions with heparin. Heparin is prepared for this study as per the directions given in the package insert. The compatibility testing is performed using a “simulated Y-site” technique developed and published by Trissel et. al. “Compatibility of Fenoldopam Mesylate with other Drugs during Simulated Y-site Administration, Am. J. Health-System Pharmacy, Vol. 60, 80-85, 2003; Trissel, et. al. “Physical Compatibility of Antithymocyte Globulin (Rabbit) with Heparin Sodium and Hydrocortisone Sodium, Vol. 60, 1650-1652, 2003; Trissel et. al. “Compatibility Screening of Bivalirudin during Simulated Y-site Administration with Other Drugs, and Trissel et. al. “Compatibility of piperacillin sodium plus tazobactum with selected drugs during simulated Y-site injection, Am. J. Hosp. Pharm., Vol. 51, 672-678, 1994. […]
as §4

Data set [4] in a line: Compatibility classification of intravenous diluents and drugs under simulated Y-site conditions with Tigecycline for Injection. The settings on record: Dobutamine final concentration 1.0 mg/ml, mixed with Tigecycline for Injection, four hour period. As for the experimental part: as §3
The mark [5] stands for this setting: Table 6: Tigecycline and Chlorpromazine solutions.
Where [6] appears, read: Table 5: Tigecycline and Dopamine solutions.
Setting [7] is: Table 5: Tigecycline and Dopamine solutions, each before mixing, 0 hours.
Where [8] appears, read: Table 1: Tigecycline 1 mg/mL in NS, Heparin 10 Units/ml in NS.
Setting [9] is: Table 2: Tigecycline 1 mg/mL in NS, Heparin 100 Units/ml in NS.
[10] abbreviates: Table 4: Tigecycline and Dobutamine solutions.
The mark [11] stands for this setting: Table 4: Tigecycline and Dobutamine solutions, each before mixing, 0 hours.

Each structure is given as a SMILES string.

Consider `CN(C)CCCN1c2ccccc2Sc2ccc(Cl)cc21` [Chlorpromazine, reference compound], for which, in data set [1] (setting [5]), the “Subvisible Particulates (HIAC) ≧10 μm” value is recorded as 21.9 particles/ml and the “Subvisible Particulates (HIAC) ≧25 μm” value was 2.9 particles/ml. This compound came in with a pH in data set [2] (Table 6: Tigecycline and Chlorpromazine solutions, each before mixing, 0 hours) of 4.61.

Turning to `NCCc1ccc(O)c(O)c1` [Dopamine, reference compound], in data set [1] (setting [6]), the “Subvisible Particulates (HIAC) ≧10 μm” value was 3.1 particles/ml and the “Subvisible Particulates (HIAC) ≧25 μm” value was 0.1 particles/ml. For the same compound, in data set [2] (setting [7]), the pH is 3.59.

As for `CN(C)c1cc(NC(=O)CNC(C)(C)C)c(O)c2c1C[C@H]1C[C@H]3[C@H](N(C)C)C(O)=C(C(N)=O)C(=O)[C@@]3(O)C(O)=C1C2=O` [Tigecycline, (4S,4aS,5aR,12aS)-9-[2-(tert-butylamino)acetamido]-4,7-bis(dimethylamino)-1,4,4a,5,5a,6,11,12a-octahydro-3,10,12,12a-tetrahydroxy-1,11-dioxo-2-naphthacenecarboxamide], the “compatibility with the administration of heparin” value in data set [3] is “compatible”. Further, the “HIAC ≧10 μm” value in data set [1] (setting [8]) is on record as 39.3 particles/mL; in data set [1] (setting [9]) it was 69.1 particles/mL. For the same compound, the figures for the “HIAC ≧25 μm” value in data set [1] (setting [8]) and in data set [1] (setting [9]) were 1.4 particles/mL and 6.2 particles/mL, respectively. For the same compound, the “Subvisible Particulates (HIAC) ≧10 μm” value in data set [1] (setting [10]) is 35.8 particles/ml; in data set [1] (setting [6]), 82.3 particles/ml; in data set [1] (setting [5]), 27.4 particles/ml. Moreover, the figures for the “Subvisible Particulates (HIAC) ≧25 μm” value in data set [1] (setting [10]), in data set [1] (setting [6]) and in data set [1] (setting [5]) were 0.9 particles/ml, 2.2 particles/ml and 1.3 particles/ml, respectively. The pH was 7.82 in data set [2] (Table 2: Tigecycline 1 mg/mL in NS, Heparin 100 Units/ml in NS, each solution before mixing, 0 Hours); 7.81 in data set [2] (setting [11]); 7.84 in data set [2] (setting [7]).

Turning to `CC(CCc1ccc(O)cc1)NCCc1ccc(O)c(O)c1` (stereo not drawn) [Dobutamine, reference compound], in data set [1] (setting [10]), the “Subvisible Particulates (HIAC) ≧10 μm” value is given as 5.9 particles/ml and the “Subvisible Particulates (HIAC) ≧25 μm” value is given as 0.6 particles/ml. Also, the “Compatibility Classification” value in data set [4] is “Compatible”. The pH in data set [2] (setting [11]) was 4.18.
